Results on 11 molecules are retold here after US6063784A, “Heteroaryloxyethylamines, method of preparation, application as medicine and pharmaceutical compositions containing them” (Societe de Conseils de Recherches et D'Applications …, priority 1996, dated 2000).

For the assay, the target named is T1, serotonergic 5-HT1A receptors (Rattus norvegicus, UniProt P19327).
T1 construct: from tissue; host or cells: cerebral cortex membranes of male Sprague Dawley rats
T1 sequence (P19327 1-422): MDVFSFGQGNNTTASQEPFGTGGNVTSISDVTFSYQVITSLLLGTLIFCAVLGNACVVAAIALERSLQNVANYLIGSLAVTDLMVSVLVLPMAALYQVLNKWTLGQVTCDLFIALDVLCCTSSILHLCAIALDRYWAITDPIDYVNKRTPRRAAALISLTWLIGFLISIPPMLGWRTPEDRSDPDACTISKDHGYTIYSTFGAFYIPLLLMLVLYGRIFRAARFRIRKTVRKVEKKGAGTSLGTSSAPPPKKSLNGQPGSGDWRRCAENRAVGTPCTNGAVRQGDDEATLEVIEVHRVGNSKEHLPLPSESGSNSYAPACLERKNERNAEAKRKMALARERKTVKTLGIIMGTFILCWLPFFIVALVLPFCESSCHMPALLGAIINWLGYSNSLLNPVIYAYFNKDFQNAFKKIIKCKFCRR
The assay is described as follows: Affinity for the 5-HT1A receptor: inhibition of [3H]8-OH-DPAT binding to rat cerebral cortex membranes. Further details: species or system rat (male Sprague Dawley). To be noted: [3H]8-OH-DPAT 1 nM, 30 min at 25° C., Tris-HCl 50 mM, pH=7.4. As to the method:
The affinity of the compounds for serotonergic 5-HT1A receptors is determined by measuring the inhibition of [3H]8-hydroxy-2(di-n-propylamino)tetralin([3H]8-OH-DPAT) bound to the cerebral cortex of the rat, according to the method of Peroutka and his coworkers [(J. Neurochem., 47, 529 (1986)].
Cerebral cortices of male Sprague Dawley rats are homogenised in Tris-HCl 50 mM, pH=7.4 and centrifuged at 40,000 g for 10 min at 4° C. Pellets are resuspended in the same buffer and incubated for 10 min at 37° C., and the homogenised products are centrifuged again at 40,000 g for 10 min at 4° C.
Competitive inhibition tests of [3H]8-OH-DPAT binding are carried out three times with unlabelled competitors, with concentrations between 100 pM and 100 µM. Cerebral cortex membranes of rats (10 mg wet weight/ml) are incubated with [3H]8-OH-DPAT (1 nM) for 30 min at 25° C. in Tris-HCl 50 mM, pH=7.4 containing 4 mM of CaCl2, 10 µM of pargyline and 0.1% of ascorbic acid.
The bound [3H]8-OH-DPAT is separated from free [3H]8-OH-DPAT by immediate filtration by means of Whatman GF/B glass fibre filters using a Brandel cell recovery device. The filters are washed three times with the same buffer at 0-4° C. and their radioactivity is studied by means of a liquid scintillation spectrometer.
The specific binding is obtained by subtracting the binding determined in the presence of 1 M of 8-OH-DPAT from the total binding. The characteristics of the binding are analysed by iterative analysis of the non-linear regression by computer, using the Ligand program [Munson and Rodbard, Anal. Biochem., 107, 220 (1980)].

The Ki is a dissociation constant, usually derived from enzyme kinetics or from competition with a known ligand. A high value points to weaker binding.

Take `CC(C)(C)C(=O)NCCCCNCCOc1cccc2cccnc12` [Compound 1, N-[4-({2-(8-quinolyloxy)ethyl}amino)butyl]tert-butanamide]: the affinity corresponds to a Ki of 0.081 nM.

Molecule `CC(C)(C)CC(=O)NCCCCNCCOc1cccc2cccnc12` [Compound 2] gave a Ki of 0.12 nM. This Ki and that of the molecule before are within 1.5-fold of each other.

As to `O=C(NCCCCNCCOc1cccc2cccnc12)C1CCCCC1` [Compound 3, N-[4-({2-(8-quinolyloxy)ethyl}amino)butyl]cyclohexanamide], affinity was put at a Ki of 0.15 nM.

In turn, `CC1(C(=O)NCCCCNCCOc2cccc3cccnc23)CCCCC1` [Compound 4] showed a Ki of 0.11 nM.

`O=C(NCCCCNCCOc1cccc2cccnc12)c1ccccc1` [Compound 5, N-[4-({2-(8-quinolyloxy)ethyl}amino)butyl]benzamide]: the inhibition constant (Ki) is 0.055 nM.

`CC(C)(C)CC(=O)NCCCCNCCOc1ccc(Cl)c2cccnc12` [Compound 6] came in with an inhibitory constant (Ki) of 0.98 nM.

`Cc1ccc2cccc(OCCNCCCCNC(=O)CC(C)(C)C)c2n1` [Compound 7]: the Ki worked out at 0.35 nM.

Take `O=C(NCCCCNCCOc1cccc2nccnc12)c1ccccc1` [Compound 9, N-[4-({2-(5-quinoxalyloxy)ethyl}amino)butyl]benzamide]: affinity was put at a Ki of 0.75 nM.

In turn, `O=C(CCCCNCCOc1cccc2cccnc12)NC1CCCCC1` [Compound 11, N-cyclohexyl-5-[(2-{8-quinolyloxy}ethyl)amino]pentanamide] yielded an inhibition constant (Ki) of 0.072 nM.

As to `CC(C)(C)CNC(=O)CCCCNCCOc1cccc2cccnc12` [Compound 12, N-neopentyl-5-[(2-{8-quinolyloxy}ethyl)amino]pentanamide], the Ki turned out to be 0.09 nM.

The molecule `CC(C)(C)CNC(=O)CCCCNCCOc1cccc2nccnc12` [Compound 13, N-neopentyl-5-[(2-{5-quinoxalyloxy}ethyl)amino]pentanamide] returned a Ki of 0.48 nM.
